# From paper PMC8597734 (Antimicrobial Agents and Chemotherapy, 2021)
# Experiments:
# [1] = test system: M. abscessus subsp. massiliense CCUG 48898T; experiment: microbe, parasite or virus in culture; type: cell-based, Mycobacterium abscessus; settings: Mycobacteroides abscessus, 72 h
# [2] = test system: M. abscessus subsp. abscessus K21; experiment: M. abscessus mouse infection model; type: in vivo, Mycobacterium abscessus; settings: NOD SCID mice, intranasal infection, 400 mg/kg oral once daily for 10 days; statistically significant
# Method: In vivo efficacy determinations were carried out as described previously, using 8-week-old female NOD.CB17-Prkdc^scid/NCrCrl (NOD SCID) mice (Charles River Laboratories) and the M. abscessus subsp. abscessus K21 strain ([48]). Briefly, anesthetized animals were infected by intranasal delivery of ∼10^6 CFU of M. abscessus subsp. abscessus K21. Acute infection was achieved within 1 day. Drugs or the vehicle control was administered to NOD SCID mice once daily for 10 consecutive days by oral gavage, starting from 1 day postinfection. Clarithromycin was formulated in 0.4% methyl cellulose–sterile water and administered at a dose of 250 mg/kg. […] EC/11716 was formulated in 0.4% methyl cellulose–sterile water and administered at 400 mg/kg. All mice were euthanized 24 h after the last dose (11 days postinfection), and their lungs and spleen were aseptically removed prior to homogenization. The bacterial load in these organs was determined by plating serial dilutions of the organ homogenates onto Middlebrook 7H11 agar (BD Difco) supplemented with 0.2% (vol/vol) glycerol and 10% (vol/vol) OADC. The agar plates were incubated for 5 days at 37°C prior to counting of colonies. All studies were conducted in accordance with the GSK Policy on the Care, Welfare and Treatment of Laboratory Animals and were reviewed the Institutional Animal Care and Use Committee either at GSK or by the ethical review process at the institution where the work was performed. All experiments involving live animals were approved by the Institutional Animal Care and Use Committee of the Center for Discovery and Innovation, Hackensack Meridian Health.
smiles,measurement,setting,value
COc1cnc2ccc(=O)n(CCN3CCC(NCc4cnc(CO)c(Cl)c4)CC3)c2c1 [EC/11716],MIC,[1],4.7 µM
same,reduction in lung CFU,[2],1 log
